Assay results as given in ChEMBL document CHEMBL2010698 (J Med Chem, 2012).

What was measured:
Acetylcholinesterase [1] = molecular target: T1, Acetylcholinesterase (Homo sapiens, UniProt P22303)
Description: Inhibition of human recombinant AChE using acetylthiocholine iodide as substrate preincubated for 20 mins prior substrate addition measured after 5 mins by spectrophotometry

Beta-secretase 1 [2] = molecular target: T2, Beta-secretase 1 (Homo sapiens, UniProt P56817); assay: Inhibition of human recombinant BACE-1 using M-2420 as substrate preincubated for 1 hr prior substrate addition measured after 15 mins by spectrofluorimetry
Cholinesterase [3] = molecular target: T3, Cholinesterase (Homo sapiens, UniProt P06276); assay: Ratio of (+/-)-huprine Y IC50 to compound IC50 for human serum BChE
T3 sequence (P06276 whole entry): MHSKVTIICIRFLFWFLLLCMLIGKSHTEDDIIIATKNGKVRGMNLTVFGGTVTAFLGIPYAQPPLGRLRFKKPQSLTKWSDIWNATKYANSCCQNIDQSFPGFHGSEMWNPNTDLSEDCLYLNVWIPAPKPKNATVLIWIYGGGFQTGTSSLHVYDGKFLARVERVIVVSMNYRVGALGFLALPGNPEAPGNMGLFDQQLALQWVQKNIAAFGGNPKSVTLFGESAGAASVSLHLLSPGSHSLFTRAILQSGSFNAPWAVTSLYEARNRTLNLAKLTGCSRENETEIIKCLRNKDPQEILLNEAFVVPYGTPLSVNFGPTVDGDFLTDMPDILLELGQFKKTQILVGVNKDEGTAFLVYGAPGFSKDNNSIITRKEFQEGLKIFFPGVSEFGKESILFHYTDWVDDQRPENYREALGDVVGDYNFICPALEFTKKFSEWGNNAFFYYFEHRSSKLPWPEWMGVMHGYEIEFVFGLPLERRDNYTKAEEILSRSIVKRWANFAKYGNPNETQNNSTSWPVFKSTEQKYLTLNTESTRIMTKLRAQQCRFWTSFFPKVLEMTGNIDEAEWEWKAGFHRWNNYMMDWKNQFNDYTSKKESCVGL

in vitro = conditions: pig, PAMPA
Description: Permeability across porcine brain lipid layer after 240 mins by PAMPA-BBB assay

Cholinesterase [4] = molecular target: T3, Cholinesterase
Description: Inhibition of human serum BChE using butyrylthiocholine iodide as substrate preincubated for 20 mins prior substrate addition measured after 5 mins by spectrophotometry

Acetylcholinesterase [5] = molecular target: T1, Acetylcholinesterase; assay: Inhibition of human recombinant AChE-induced Abeta1-40 aggregation by thioflavin T fluorescence method
Mus musculus = species on record: Mus musculus; assay: animal or person; conditions: OF1, Brain, ip, 20 min, read-out: INH
Acetylcholinesterase [6] = molecular target: T4, Acetylcholinesterase (Bos taurus, UniProt P23795); assay: Inhibition of bovine AChE-induced coumarin-tagged PrP106-126 aggregation after 48 hrs by fluorescence microscopy
T4 sequence (P23795 whole entry): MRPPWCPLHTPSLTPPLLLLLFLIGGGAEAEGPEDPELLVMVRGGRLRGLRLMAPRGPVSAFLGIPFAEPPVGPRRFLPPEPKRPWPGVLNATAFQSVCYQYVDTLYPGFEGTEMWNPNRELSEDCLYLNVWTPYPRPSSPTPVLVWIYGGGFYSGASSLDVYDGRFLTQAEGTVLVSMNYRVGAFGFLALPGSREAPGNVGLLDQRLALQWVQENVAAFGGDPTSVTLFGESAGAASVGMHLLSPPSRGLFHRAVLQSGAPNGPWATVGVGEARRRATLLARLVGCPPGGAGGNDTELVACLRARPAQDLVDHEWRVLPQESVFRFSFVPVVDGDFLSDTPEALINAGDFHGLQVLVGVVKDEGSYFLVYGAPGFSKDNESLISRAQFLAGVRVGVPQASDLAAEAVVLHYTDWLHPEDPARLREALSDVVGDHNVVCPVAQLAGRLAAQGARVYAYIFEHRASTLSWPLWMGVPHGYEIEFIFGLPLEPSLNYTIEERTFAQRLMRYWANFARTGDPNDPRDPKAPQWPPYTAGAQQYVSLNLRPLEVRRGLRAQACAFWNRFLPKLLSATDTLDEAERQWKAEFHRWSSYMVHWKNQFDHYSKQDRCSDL

[7] = Inhibition of self-induced Abeta1-42 aggregation after 24 hrs by thioflavin T fluorescence method
Beta-secretase 1 [8] = molecular target: T2, Beta-secretase 1; conditions: 5 uM
Description: Inhibition of human recombinant BACE-1 using panvera peptide as substrate at 5 uM preincubated for 60 mins prior substrate addition measured after 60 mins by spectrofluorimetry

Acetylcholinesterase [9] = molecular target: T1, Acetylcholinesterase; remark: listed apart in the source
Description: Competitive inhibition of human recombinant AChE by Lineweaver-Burk plot analysis

T1 sequence (P22303 whole entry): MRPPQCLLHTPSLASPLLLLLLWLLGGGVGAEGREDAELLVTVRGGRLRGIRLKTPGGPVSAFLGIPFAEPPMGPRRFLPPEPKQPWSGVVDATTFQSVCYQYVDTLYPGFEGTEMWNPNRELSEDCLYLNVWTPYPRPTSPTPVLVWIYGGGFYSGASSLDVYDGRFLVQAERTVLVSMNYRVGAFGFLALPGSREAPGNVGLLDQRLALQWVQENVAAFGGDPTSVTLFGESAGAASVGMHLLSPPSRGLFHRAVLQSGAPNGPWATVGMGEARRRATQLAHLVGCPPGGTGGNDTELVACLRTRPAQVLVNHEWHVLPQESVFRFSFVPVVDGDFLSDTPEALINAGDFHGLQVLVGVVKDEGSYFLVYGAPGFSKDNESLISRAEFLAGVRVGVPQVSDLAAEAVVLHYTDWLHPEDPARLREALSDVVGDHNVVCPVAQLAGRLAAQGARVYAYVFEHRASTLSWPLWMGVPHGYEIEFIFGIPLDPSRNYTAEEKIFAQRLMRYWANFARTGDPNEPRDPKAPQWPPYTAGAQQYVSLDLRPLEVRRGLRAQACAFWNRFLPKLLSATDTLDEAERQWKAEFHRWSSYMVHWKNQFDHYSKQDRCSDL
T2 sequence (P56817 whole entry): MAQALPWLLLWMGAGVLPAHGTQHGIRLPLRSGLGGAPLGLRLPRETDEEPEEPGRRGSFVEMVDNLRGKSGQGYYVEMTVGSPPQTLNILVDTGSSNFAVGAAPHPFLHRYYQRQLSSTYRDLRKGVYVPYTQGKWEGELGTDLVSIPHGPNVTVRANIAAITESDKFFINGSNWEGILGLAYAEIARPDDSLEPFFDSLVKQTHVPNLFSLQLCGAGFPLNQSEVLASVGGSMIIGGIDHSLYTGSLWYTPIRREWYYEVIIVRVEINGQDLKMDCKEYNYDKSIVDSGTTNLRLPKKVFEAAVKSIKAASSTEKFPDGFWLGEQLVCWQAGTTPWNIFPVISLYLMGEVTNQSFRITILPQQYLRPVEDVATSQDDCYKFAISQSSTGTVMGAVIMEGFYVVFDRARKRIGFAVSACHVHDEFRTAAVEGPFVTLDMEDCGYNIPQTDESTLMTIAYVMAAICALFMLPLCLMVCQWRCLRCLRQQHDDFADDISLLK

In the case of `CC1=CC2Cc3nc4cc(Cl)ccc4c(NCCCCCCCCCNc4c5c(nc6cc(Cl)ccc46)CCCC5)c3C(C1)C2.Cl.Cl.Cl.Cl` (racemic), the IC50 (Acetylcholinesterase [1]) is reported as 3.26 nM, the IC50 (Beta-secretase 1 [2]) is reported as 5.8 µM and the Ratio IC50 (Cholinesterase [3]) is reported as 6. It also gave a Papp at 4 h (in vitro) of 15.6 ×10⁻⁶ cm/s and an IC50 (Cholinesterase [4]) of 27.2 nM.

With `CC1=CC2Cc3nc4cc(Cl)ccc4c(NCCCCCCCNc4c5c(nc6cc(Cl)ccc46)CCCC5)c3C(C1)C2.Cl.Cl.Cl.Cl` (racemic) the IC50 (Acetylcholinesterase [1]) was 4.02 nM, the Papp at 4 h (in vitro) was 20.9 ×10⁻⁶ cm/s and the IC50 (Cholinesterase [4]) was 73.3 nM.

For `CC1=C[C@H]2Cc3nc4cc(Cl)ccc4c(NCCCCCCCNc4c5c(nc6cc(Cl)ccc46)CCCC5)c3[C@@H](C1)C2`, the IC50 (Acetylcholinesterase [1]) was 11.5 nM, the IC50 (Beta-secretase 1 [2]) was 5.9 µM and the IC50 (Cholinesterase [4]) was 47.4 nM.

`CC1=CC2Cc3nc4cc(Cl)ccc4c(NCCCCCCNc4c5c(nc6ccccc46)CCCC5)c3C(C1)C2.Cl` (racemic) showed an IC50 (Acetylcholinesterase [1]) of 0.89 nM, a Ratio IC50 (Cholinesterase [3]) of 6 and a Papp at 4 h (in vitro) of 10.7 ×10⁻⁶ cm/s. The IC50 (Cholinesterase [4]) was 24.6 nM.

With `CC1=CC2Cc3nc4cc(Cl)ccc4c(NCCCCCCCCNc4c5c(nc6ccccc46)CCCC5)c3C(C1)C2.Cl` (racemic) the IC50 (Acetylcholinesterase [1]) was 1.38 nM, the IC50 (Acetylcholinesterase [5]) was 61.3 µM and the Papp at 4 h (in vitro) was 10.2 ×10⁻⁶ cm/s. It also gave an inhibition in vivo at 10 µmol/kg (Mus musculus) of 30%, an IC50 (Acetylcholinesterase [6]) of 68.7 nM and an IC50 [7] of at most 10 µM. For the same compound, the IC50 (Cholinesterase [4]) was 74.2 nM.

For `CC1=C[C@@H]2Cc3nc4cc(Cl)ccc4c(N)c3[C@H](C1)C2`, the inhibition (Beta-secretase 1 [8]) was 14%.

Work on `CC1=C[C@@H]2Cc3nc4cc(Cl)ccc4c(NCCCCCCCNc4c5c(nc6cc(Cl)ccc46)CCCC5)c3[C@H](C1)C2` yielded an IC50 (Acetylcholinesterase [1]) of 2.04 nM, an IC50 (Beta-secretase 1 [2]) of 5.7 µM and a Kic (Acetylcholinesterase [9]) of 1.51 nM. The IC50 (Cholinesterase [4]) was 86.8 nM.

`CC1=CC2Cc3nc4cc(Cl)ccc4c(NCCCCCCCCNc4c5c(nc6cc(Cl)ccc46)CCCC5)c3C(C1)C2.Cl` (racemic) gave an IC50 (Acetylcholinesterase [1]) of 1.32 nM, an IC50 (Beta-secretase 1 [2]) of 4.9 µM and a Papp at 4 h (in vitro) of 21.1 ×10⁻⁶ cm/s. The inhibition in vivo at 10 µmol/kg (Mus musculus) was 28.5%, the IC50 (Acetylcholinesterase [6]) was 263 nM and the IC50 (Cholinesterase [4]) was 35.1 nM.

`CC1=CC2Cc3nc4cc(Cl)ccc4c(N)c3C(C1)C2` (racemic) gave an IC50 (Cholinesterase [4]) of 175 nM.

`CC1=CC2Cc3nc4cc(Cl)ccc4c(NCCCN(C)CCCNc4c5c(nc6cc(Cl)ccc46)CCCC5)c3C(C1)C2.Cl` (racemic) showed an IC50 (Acetylcholinesterase [1]) of 0.31 nM, a Papp at 4 h (in vitro) of 7 ×10⁻⁶ cm/s and an IC50 (Cholinesterase [4]) of 51.3 nM.

Compound `CC1=CC2Cc3nc4cc(Cl)ccc4c(NCCCCCCCCCCNc4c5c(nc6cc(Cl)ccc46)CCCC5)c3C(C1)C2.Cl.Cl.Cl.Cl` (racemic) has an IC50 (Acetylcholinesterase [1]) of 9.09 nM, an IC50 (Beta-secretase 1 [2]) of 6.6 µM and a Papp at 4 h (in vitro) of 29.1 ×10⁻⁶ cm/s. It also gave an IC50 (Cholinesterase [4]) of 76.6 nM.

`CC1=C[C@@H]2Cc3nc4cc(Cl)ccc4c(NCCCCCCCNc4c5c(nc6ccccc46)CCCC5)c3[C@H](C1)C2` gave an IC50 (Acetylcholinesterase [1]) of 1.33 nM, an IC50 [7] of at most 10 µM and an IC50 (Cholinesterase [4]) of 133 nM.

`CC1=CC2Cc3nc4cc(Cl)ccc4c(NCCCCCCCNc4c5c(nc6ccccc46)CCCC5)c3C(C1)C2.Cl.Cl.Cl` (racemic) showed an IC50 (Acetylcholinesterase [1]) of 1.89 nM, a Papp at 4 h (in vitro) of 12.5 ×10⁻⁶ cm/s and an IC50 [7] of at most 10 µM. It also gave an IC50 (Cholinesterase [4]) of 87.1 nM.

For `CC1=C[C@H]2Cc3nc4cc(Cl)ccc4c(NCCCCCCCNc4c5c(nc6ccccc46)CCCC5)c3[C@@H](C1)C2`, the IC50 (Acetylcholinesterase [1]) was 6.84 nM, the IC50 [7] was at most 10 µM and the IC50 (Cholinesterase [4]) was 139 nM.

With `CC1=CC2Cc3nc4cc(Cl)ccc4c(NCCCCCCNc4c5c(nc6cc(Cl)ccc46)CCCC5)c3C(C1)C2.Cl` (racemic) the IC50 (Acetylcholinesterase [1]) was 0.74 nM, the Papp at 4 h (in vitro) was 12 ×10⁻⁶ cm/s and the IC50 (Cholinesterase [4]) was 75.2 nM.

For `CC1=CC2Cc3nc4cc(Cl)ccc4c(NCCCCCCCCCCNc4c5c(nc6ccccc46)CCCC5)c3C(C1)C2.Cl.Cl.Cl` (racemic), the IC50 (Acetylcholinesterase [1]) was 4.19 nM, the IC50 (Beta-secretase 1 [2]) was 7.3 µM and the Ratio IC50 (Cholinesterase [3]) was 6. It also gave a Papp at 4 h (in vitro) of 16.3 ×10⁻⁶ cm/s and an IC50 (Cholinesterase [4]) of 26.6 nM.

`CC1=CC2Cc3nc4cc(Cl)ccc4c(NCCCN(C)CCCNc4c5c(nc6ccccc46)CCCC5)c3C(C1)C2.Cl` (racemic) showed an IC50 (Acetylcholinesterase [1]) of 0.42 nM, a Papp at 4 h (in vitro) of 11.4 ×10⁻⁶ cm/s and an IC50 (Cholinesterase [4]) of 44.2 nM.

In the case of `CC1=C[C@H]2Cc3nc4cc(Cl)ccc4c(N)c3[C@@H](C1)C2`, the inhibition (Beta-secretase 1 [8]) is reported as 13.6%.

With `CC1=CC2Cc3nc4cc(Cl)ccc4c(NCCCCCCCCCNc4c5c(nc6ccccc46)CCCC5)c3C(C1)C2.Cl.Cl.Cl` (racemic) the Papp at 4 h (in vitro) was 6 ×10⁻⁶ cm/s.
